Drawing on patent EP4585606A1, “OL[…] USE AND COMPOSITION THEREOF” (Buddhist Tzu Chi Medical Foundation, priority 2022, dated 2024), this text covers ALP activities for 1 compound.

For the assay, the system named is human osteoblastic cells hFOB1.19. The assay is described as follows: alkaline phosphatase (ALP) activity, TRACP & ALP detection kit. The settings on record: hFOB1.19 not treated with the oligopeptides, CaCl2 0.01, 0.06, 0.2, 0.9 and 3.6 µM, 2 days. The assay is classed as cell-based. As for the experimental part:
The activity of alkaline phosphatase was measured by a TRACP & ALP detection kit. hFOB1.19 cells were cultured at 2×10^4 cells/well in a 96-well plate for 2 days. After removing the supernatant of the culture, the cells were resuspended in physiological saline. To each well 50 µl of the extract solution was added, and incubated at room temperature for 5 minutes. Then, 50 µl of the matrix solution was added to each well and reacted at 37°C for 60 minutes. Finally, 50 µl of 0.5N NaOH was added to each well to terminate the reaction. After formation of color, the solution was measured for the absorbance at 405 nm.
Alkaline phosphatase is present in bone at a high level, and frequently considered as the indicator for differentiation of osteoblastic cells and growth of bone. In Example 6, human osteoblastic cells hFOB1.19 was not treated with the oligopeptide at the condition of different concentrations of CaCl2, and was treated with the four oligopeptides (0.45 µM) described above at the condition of 3.6 µM CaCl2 for 2 days, to detect the ALP activities in human osteoblastic cells hFOB1.19. […] (In FIGs. 6A and 6B, three separate experiments were performed for each group, and the data were expressed by mean ± SD. Statistical significance: by one-tailed test, *P < 0.05, in respect to the Control groups (A-D).

`[Ca+2].[Cl-].[Cl-]` [CaCl2]: the ALP activities entry is reported as “no significant change”.
